Reference: patent US20260130847A1, “INGESTIBLE IN VIVO-ASSEMBLING DRUG RELEASE FORMULATIONS AND METHODS” (Massachusetts Institute of Technology, priority 2022, published 2026)

Legend:
lactase = target: T1, lactase (Aspergillus oryzae, UniProt Q2UCU3); assay: Lactase activity after dithiol molecule treatment (ONPG); assay type: biochemical; settings: 2.5, 5, or 10 mM, 37° C., 20 min
T1 construct: purchased MilliporeSigma G5160
T1 sequence (Q2UCU3 19-1005): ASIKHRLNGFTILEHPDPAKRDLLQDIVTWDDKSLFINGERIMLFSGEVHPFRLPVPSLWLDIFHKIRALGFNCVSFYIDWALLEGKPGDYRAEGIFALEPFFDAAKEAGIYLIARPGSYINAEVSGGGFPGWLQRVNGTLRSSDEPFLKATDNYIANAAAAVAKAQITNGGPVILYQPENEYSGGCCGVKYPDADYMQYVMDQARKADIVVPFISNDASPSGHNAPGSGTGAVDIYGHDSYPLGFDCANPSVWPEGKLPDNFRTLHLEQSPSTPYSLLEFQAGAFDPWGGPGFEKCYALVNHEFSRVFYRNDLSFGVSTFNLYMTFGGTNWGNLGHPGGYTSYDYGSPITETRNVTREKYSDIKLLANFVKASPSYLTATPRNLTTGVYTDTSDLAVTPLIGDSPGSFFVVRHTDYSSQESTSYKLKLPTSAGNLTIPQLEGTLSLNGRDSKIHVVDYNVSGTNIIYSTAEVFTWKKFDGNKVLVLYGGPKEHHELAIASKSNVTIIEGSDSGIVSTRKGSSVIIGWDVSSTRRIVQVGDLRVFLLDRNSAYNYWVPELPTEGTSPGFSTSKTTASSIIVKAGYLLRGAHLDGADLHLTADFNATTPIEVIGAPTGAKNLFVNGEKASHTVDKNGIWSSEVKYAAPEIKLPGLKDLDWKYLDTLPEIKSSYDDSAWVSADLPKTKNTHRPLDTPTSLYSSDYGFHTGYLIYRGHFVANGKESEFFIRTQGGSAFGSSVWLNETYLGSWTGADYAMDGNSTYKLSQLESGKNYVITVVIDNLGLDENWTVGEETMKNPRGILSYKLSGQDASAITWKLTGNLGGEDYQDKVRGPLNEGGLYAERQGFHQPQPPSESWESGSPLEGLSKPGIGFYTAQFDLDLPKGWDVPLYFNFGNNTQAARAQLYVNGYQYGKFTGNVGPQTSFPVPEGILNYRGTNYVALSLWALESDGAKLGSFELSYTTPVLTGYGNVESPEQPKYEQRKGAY
Protocol: Lactase (18 μg, 60 μL) was added to DMSA or PEG-dithiol to a final DMSA/PEG-dithiol concentration of 2.5, 5, or 10 mM. Treatments were incubated at 37° C. for 20 min. Lactase activity was assayed by adding 60 μL of 5 mM ONPG and incubation for 1 min at room temperature. After, 300 μL of 1 M Na2CO3 was added to stop the reaction, and the absorbance of the solution was read at λ=420 nm.

[1] = Encapsulated lumefantrine pharmacokinetics; assay type: in vivo; settings: pigs, 960 mg lumefantrine
Protocol: All animal studies were performed only after MIT CAC review and approval and under veterinarian supervision. Pigs were dosed with the following treatments via endoscopy: free lumefantrine, lumefantrine encapsulated in alginate hydrogels, and lumefantrine encapsulated in LIFT hydrogels (n=3 each). All pigs were dosed with a total of 960 mg lumefantrine. For free lumefantrine, drug powder was weighed and placed across three gelatin capsules. For hydrogel formulations, lumefantrine powder was suspended in polymer solution (0.5% w/v alginate or 0.5% w/v alginate/5% 4-arm PEG-maleimide), mixed, and administered after crosslinker solution (200 mM CaCl2/10 mM DMSA). Blood was sampled via an installed ear catheter at the indicated time points, and lumefantrine area under the curve was calculated by the trapezoidal rule.
Plasma lumefantrine and desbutyl lumefantrine were separated via high pressure liquid chromatography (HPLC) and quantified with an Agilent 6495A electrospray ionization (ESI) triple quadrupole mass spectrometer (Agilent Technologies, Santa Clara, CA). Samples were introduced to the system with a 5 μL injection volume. Chromatography was performed on an Acquity BEH C18 column (2.1×50 mm, dP 1.8 μm, Waters, Milford, MA), heated to 50° C., with a binary mobile phase composed of 0.1% formic acid in water (v/v, A) and 5% tetrahydrofuran in methanol (v/v, B). […] Nozzle voltage was set to 1500 V and capillary voltage was set to 3500 V. Dynamic multiple reaction-monitoring was used to quantify analytes. Lumefantrine was monitored at transitions 528.16 to 510.00 m/z at 28 collision energy (CE), with a qualifier transition from 528.16 to 383.00 m/z (40 CE). Desbutyl lumefantrine was monitored at 472.1 to 454.1 m/z (20 CE) and qualified from 472.1 to 346 m/z (36 CE). Halofantrine was used as an internal standard and quantified with the 500.18 to 142.10 m/z transition (24 CE) and qualified with the 500.18 to 100.10 m/z transition. […]

cellulase = assay: Cellulase activity after acid exposure in vitro; assay type: biochemical; settings: short incubations in gastric acid

O=C(O)C(S)C(S)C(=O)O (centres unmarked) [DMSA, dimercaptosuccinic acid]
lactase activity after exposure to dithiol compound (lactase): attenuated lactase activity

CCCCN(CCCC)CC(O)c1cc(Cl)cc2c1-c1ccc(Cl)cc1/C2=C/c1ccc(Cl)cc1 (centres unmarked) [free lumefantrine, Lumefantrine]
AUC ([1]; pig, other: via endoscopy, plasma, n=3, trapezoidal rule, read-out: area under the curve (AUC) of released drug): 14900 ng·h/mL
Cmax ([1]; pig, other: via endoscopy, plasma, n=3, read-out: maximum observed drug concentration (Cmax)): 901 ± 197 ng/mL
time of peak plasma drug concentration post-administration ([1]; n=3): 5 to 7 h

cellulase
activity of free cellulase (cellulase): significantly degraded enzyme activity
